Laboratory results taken from EP4596537A1, “NOVEL FLUORENE DERIVATIVE COMPOUND AND USE THEREOF” (JD Bioscience Inc., priority 2022, dated 2024).

What was measured:
C57BL6J JmcSlc mice = assay: Inflammatory bowel disease animal model (DSS-induced colitis); type: in vivo
Description: Colitis was induced in 8-week-old male C57BL6J JmcSlc mice by feeding 3.5% dextran sodium sulfate (DSS) ad libitum for 9 days, and then replacing the same with normal drinking water. The vehicle and Compound 1 (0.5 mg/kg or 1 mg/kg) were orally administered to the experimental animal model prepared as described above daily from 2 days before DSS drinking until the end of drinking. In order to determine the degree of colonic inflammation, the degree of longitudinal contraction of the isolated colon was measured, and the histological scores were confirmed through H&E staining, which is shown in FIG. 6. Furthermore, total RNA was isolated from the isolated colon, cDNA was synthesized, and the expression levels of representative cytokines (IFNγ, IL-1β, IL-4, IL-6, IL-10, IL-12β, IL-17a, and TNFα) were measured and compared using qPCR, and the results are shown in FIG. 7.

BALB/c male mice = assay: Graft-versus-host disease (GvHD) animal model; type: in vivo; parameters: change in body weight: unit not given here; details: for body weight of the GvHD in vivo model: compared to control group
Description: 5-week-old BALB/c male mice were acclimatized for 1 week and irradiated with 800 cGy of total body irradiation. Then, 5 × 10^6 bone marrow cells derived from C57BL/6J and 1 × 10^7 spleen cells were intravenously injected to establish a GvHD in vivo model (positive control). A syngeneic control group was established in the same manner as above, but BALB/c-derived bone marrow cells were selected as the injected bone marrow cells. Compound 1 Daily was established by daily oral gavage of1 mg/kg of Compound 1 to the GvHD in vivo model. Compound 1 Initial only was established by orally administering 1 mg/kg of Compound 1 to the GvHD in vivo model only for 6 days after model induction. The therapeutic effect of Compound 1 was verified by measuring the change in body weight every 3 days for each control and experimental group established as above, and the results are shown in FIG. 11 and Table 4. On day 14, the production of CD4^+IFNg^+ T cells, which is a major factor inducing GvHD, was measured in the spleens isolated from the mice, and the results are shown in FIG. 12 and Table 5.

PDHE1α S293 = assay: In vitro PDH S293 phosphorylation inhibition (Western blot) in HEK293 cells; type: cell-based, human; details: Homo sapiens, 5 hours
Description: HEK293 cells, which are human embryonic kidney cells, were seeded at a density of 2 × 10^6 in a 60 mm dish, and cultured for 24 hours. After replacing the medium with a medium comprising 0.5% FBS, the compounds prepared according to Examples 1 to 54 were treated at various concentrations. 5 hours later, the cells were scraped off and collected into a 15 mL conical tube and centrifuged at 1500 rpm for 10 minutes. The supernatant was discarded, the resultant was washed with 1× PBS, and transferred to a 1.5 mL e-tube, followed by centrifugation at 10,000 rpm for 5 minutes. The supernatant was discarded again, a lysis buffer was added, and the cells were lysed on ice for 30 minutes. The cells were vortexed every 10 minutes to completely lyse, and centrifuged again at 10,000 rpm for 15 minutes at 4°C, and the supernatant was collected. The protein in the supernatant was quantified using BCA technique, and the sample buffer was added to 20 µg of protein and allowed to react at 70°C for 5 minutes. The expression of PDHE1α S232, S293, S300, and total PDHE1α proteins was detected by Western blot, and the resulting PDH S293 phosphorylation inhibition is shown in Table 6. […]

NCI-H295R cells = assay: Cortisol production (ELISA), Cushing's syndrome cell model; type: cell-based, human; details: 0.1 µM, 0.5 µM, and 1 µM; 0.5 mM 8-Br-cAMP; concentration-dependent
Description: NCI-H295R cells (ATCC #CRL-2128), which are a human adrenocortical carcinoma cell line, were seeded at a density of 2.5 × 10^5 cells/well in a 24-well plate. The cells were cultured for 48 hours, and then they were pretreated with Compound 1 (0.1 µM, 0.5 µM, and 1 µM) for 12 hours. Furthermore, to increase cortisol synthesis, the cells were treated with 8-bromoadenosine […] monophosphate (8-Br-cAMP) at a concentration of 0.5 mM, and then re-treated with Compound 1, and allowed to react for 24 hours. After the reaction, the cell culture medium was collected, and the amount of cortisol produced in the cells was measured using an ELISA kit, and the results are shown in FIG. 14.

C57BL6J mice = assay: Acute kidney ischemic reperfusion (IR) injury animal model; type: in vivo; details: 4 µg/kg and 8 µg/kg via tail vein; vs vehicle-treated IR group
Description: Vehicle and Compound 1 (4 µg/kg or 8 µg/kg) were administered to 8-week-old male C57BL6J mice via the tail vein 24 hours before, 1 hour before, and 12 hours after ischemic reperfusion (IR) surgery. The surgery was performed by blocking the artery leading to the kidney to induce ischemia for 37 minutes. The blocked artery was released, and 24 hours later, the mice were anesthetized and autopsied. Other part was used to synthesize cDNA, and a kidney damage marker, NGAL was identified by real-time PCR. And serum was separated from the blood, and creatinine, which is a kidney damage marker in the serum, was examined, and the results are shown in FIG. 3.

liver cancer cells = assay: Growth inhibition (Cell Counting Kit-8), liver cancer cells; type: cell-based; details: 24 hours, 0.5% FBS
Description: In order to verify the growth inhibitory effect of Compound 1 on various normal and cancer cell lines, 25 types of cell lines listed in Table 7 below were tested. In detail, each cell was seeded at a density of 2 × 10^4 cells/well in a 96-well plate and cultured for 24 hours, and then the medium was replaced with a medium comprising 0.5% (for cancer cells) or 10% (for normal cells) FBS, and Compound 1 was treated at various concentrations. 24 hours later, 10 µL of Cell Counting Kit-8 (Dojindo Molecular Technologies) was added, and 1 hour later, absorbance at 480 nm was measured using a microplate reader (TECAN SPARK), and the results are shown in FIGS. 15 to 21.

[1] = qPCR, vs vehicle administration group

`CC(C(=O)NNc1ccc(F)cc1)n1cc(-c2cc(F)cc3c2-c2ccccc2C3(O)C(F)(F)F)cn1` (centres unmarked) [Example 1, 2-(4-(2-fluoro-9-hydroxy-9-(trifluoromethyl)-9H-fluoren-4-yl)-1H-pyrazol-1-yl)-N'-(4-fluorophenyl)propanehydrazide] was tested. Which “longitudinal contraction of colon” value (C57BL6J JmcSlc mice; 0.5 mg/kg and 1 mg/kg oral daily, vs vehicle, effect increased with dose) did it give?
The value was “alleviated”.

What about the “colonic epithelial cell recovery (H&E staining)” value (C57BL6J JmcSlc mice; 0.5 mg/kg oral daily, DSS) of the same compound?
The value was “slight”.

And the “colonic epithelial cell recovery (H&E staining)” value (C57BL6J JmcSlc mice; 1 mg/kg oral daily, DSS)?
The value was “remarkable epithelial cell recovery”.

What about the “tissue score (histological score)” value (C57BL6J JmcSlc mice; 1 mg/kg oral daily, DSS) of the same compound?
The value was “lowest score”.

What about the “mRNA expression of IFNγ (colon)” value (C57BL6J JmcSlc mice; [1]) of the same compound?
Its value is “significantly reduced”.

What about the “mRNA expression of IL-4 (colon)” value (C57BL6J JmcSlc mice; [1]) of the same compound?
Its value is “increased”.

And the “mRNA expression of IL-6 (colon)” value (C57BL6J JmcSlc mice; [1])?
Its value is “significantly reduced”.

What about the “mRNA expression of IL-12b (colon)” value (C57BL6J JmcSlc mice; [1]) of the same compound?
The value was “significantly reduced”.

What about the “mRNA expression of IL-17a (colon)” value (C57BL6J JmcSlc mice; [1]) of the same compound?
Its value is “significantly reduced”.

What about the “mRNA expression of TNFα (colon)” value (C57BL6J JmcSlc mice; [1]) of the same compound?
Its value is “significantly reduced”.

And the “change in body weight” value (BALB/c male mice; Daily oral gavage 1 mg/kg, D0)?
Its value is 0.

And the “change in body weight” value (BALB/c male mice; Daily oral gavage 1 mg/kg, D3)?
Its value is -14.77.

And the “change in body weight” value (BALB/c male mice; Daily oral gavage 1 mg/kg, D6)?
The value was -22.95.

What about the “change in body weight” value (BALB/c male mice; Daily oral gavage 1 mg/kg, D9) of the same compound?
The value was -19.07.

And the “change in body weight” value (BALB/c male mice; Daily oral gavage 1 mg/kg, D12)?
Its value is -16.1959.

What about the “body weight of the GvHD in vivo model” value (BALB/c male mice; Daily oral gavage 1 mg/kg) of the same compound?
The value was “significantly recovered”.

And the “change in body weight” value (BALB/c male mice; Initial only: 1 mg/kg oral for 6 days after model induction, D0)?
The value was 0.

And the “change in body weight” value (BALB/c male mice; Initial only: 1 mg/kg oral for 6 days after model induction, D3)?
The value was -11.15.

And the “change in body weight” value (BALB/c male mice; Initial only: 1 mg/kg oral for 6 days after model induction, D6)?
Its value is -19.01.

And the “change in body weight” value (BALB/c male mice; Initial only: 1 mg/kg oral for 6 days after model induction, D9)?
Its value is -14.6667.

What about the “change in body weight” value (BALB/c male mice; Initial only: 1 mg/kg oral for 6 days after model induction, D12) of the same compound?
Its value is -11.99.

And the “body weight of the GvHD in vivo model” value (BALB/c male mice; Initial only: 1 mg/kg oral for 6 days)?
Its value is “significantly recovered”.

And the inhibition at 1 µM (PDHE1α S293)?
The inhibition at 1 µM was at least 80%.

What about the cortisol production (NCI-H295R cells) of the same compound?
The cortisol production was “significantly inhibited”.

And the “RNA expression of NGAL (kidney)” value (C57BL6J mice)?
Its value is “significantly reduced”.

And the “apoptosis of kidney tissue (TUNEL staining)” value (C57BL6J mice)?
The value was “significant reduction”.

And the “renal tubular tissue damage (H&E staining)” value (C57BL6J mice)?
The value was “significant reduction”.

And the serum creatinine (C57BL6J mice)?
Its serum creatinine is “significantly reduced”.

And the “concentration at which viability began to rapidly decrease to 70% or less” value (liver cancer cells)?
The value was 10 µM.
